Read-outs that look alike come from different tables or passages of the source.
What was measured:
[1] = Caco-2 cell monolayers intrinsic permeation assay in the presence of efflux inhibitors; format: in vitro ADME; conditions: Caco-2, with efflux inhibitors
From the text: Caco-2 cells were obtained from American Type Culture Collection (ATCC). HEPES, penicillin, streptomycin, bovine serum albumin (BSA) were obtained from Beijing Xinjingke Biotechnology Co, Ltd. Fetal bovine serum, Hank's balanced salt solution (HBSS) and non-essential amino acids (NEAA) were purchased from Gibco. Dulbecco's Modified Eagle's Medium (DMEM) was purchased from Corning and MES from Sigma. HTS Transwell-24 permeable supports were purchased from Corning. Zosuquidar and Ko-143 were obtained from MedChemExpress and Benzbromarone from Sigma.
The Caco-2 cell culture medium consisted of DMEM with high glucose and L-glutamine supplemented with 10% FBS, 0.1 mg/mL streptomycin, 100 units of penicillin, 0.6 mg/mL kanamycin sulfate and 1×NEAA. […] culture medium was added to each Transwell insert with 800 mL added to each well of the reservoir. After incubation at 37° C. in 5% CO2 for 1 hour, the plates were ready for seeding.
The cells were cultivated in T-75 flasks at 37° C., 5% CO2, 95% relative humidity. At 80 to 90% confluence, cells were treated with trypsin/EDTA treatment until they became detached. The trypsin/EDTA was inactivated by adding excess serum containing medium. The cell suspension was centrifuged at 120 g for 10 minutes followed by resuspension of the cell pellet in seeding medium at a cell density of 7.92×10^5 cells/mL.
[…] of the resulting cell suspension was added to each well of the Transwell plate and incubated for 14 to 18 days, with medium replaced every other day. After incubation for 14 to 18 days, the cells should have reached confluence and should be tested for electrical resistance using a Millicel Epithelial Volt-Ohm measuring system (Millipore).
The cell monolayers were washed twice with pre-warmed HBSS and incubated at 37° C. for 30 minutes under gentle shaking (480 rpm).
The compound under test was presented as a 10 mM DMSO stock solution. 2 mL of the 10 mM stock was added to 8 mL DMSO to produce a 2 mM stock. 2 mL was added to 398 mL of HBSS containing 10 mM Zosuquidar, 30 mM Benzbromarone and 2 mM KO-143 to make a […] solution.
210 mL of the test compound solution was added to the apical compartment of the Transwell plate, with a 10 mL sample taken to act as the time 0 sample. The wells of the receiver (basolateral) compartment were filled with 800 mL HBSS (containing the efflux inhibitors). The plates were incubated at 37° C. with shaking at 480 rpm for 120 minutes with sampling at 45 and 120 minutes.
At each sampling time (0, 45 and 120 minutes) 10 mL was removed from the apical compartment and add to 90 mL (HBSS containing the efflux inhibitors). 100 mL was removed from each basolateral compartment. 3 volumes of cold acetonitrile containing internal standard was added to each sample and vortex mixed for 10 minutes at 100 rpm. Samples were then centrifuged at 400 rpm for 20 minutes. 50 mL of the supernatant was taken for LC/MS/MS analysis to determine compound concentration.
The apparent permeability (Papp), in units of centimetre per second, were calculated for Caco-2 drug transport using the following equation: […]
Where CR is the concentration of compound in the receiver side at the respective time point, CD is the concentration of compound in the donor side at the respective timepoint. Area is the surface area of the membrane and time is 4500 seconds (75×60 seconds).

MOLM-13 cells = assay: Proliferation assay, MOLM-13 (CellTiter-Glo, 7 days); format: cell-based, human
Procedure, shortened: (§1)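 Cells seeded at 125 (MOLM-13), 300 (MV4;11), 75 (OCI-AML3) or 200 (HEL) per well were exposed to 3.16-fold compound dilutions (0.1% DMSO) for 7 days at 37° C. Viability by CellTiter-Glo luminescence, normalized to DMSO (100%) and day-0 plate (0%); IC50 from one-site dose-response fit.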

HEL cells = assay: Proliferation assay, HEL control cell line (CellTiter-Glo, 7 days); format: cell-based, human
Procedure, shortened: as §1

MV4;11 cells = assay: Proliferation assay, MV4;11 (CellTiter-Glo, 7 days); format: cell-based, human; conditions: read-out: MV-4-11 IC50
Procedure, shortened: as §1

| Compound | Papp A→B [1] | IC50 (MOLM-13 cells; Homo sapiens, MOLM-13, 168 h) | IC50 (MOLM-13 cells) | IC50 (MV4;11 cells; Homo sapiens, MV4-11, 168 h) | IC50 (HEL cells; Homo sapiens, HEL, 168 h) | IC50 (HEL cells) | IC50 (MV4;11 cells) |
| --- | --- | --- | --- | --- | --- | --- | --- |
| Cc1c(C(=O)[C@@H]2CCN(C(=O)[C@@H]3CC[C@@H](C)N3)[C@@H](C)C2)c2ccncc2n1-c1ccc(F)cc1C(=O)N(C(C)C)C(C)C (stereo in doubt) [Example 64, 5-Fluoro-N,N-diisopropyl-2-(2-methyl-3-((2S,4RS)-2-methyl-1-((2S,5R)-5-methylpyrrolidine-2-carbonyl)piperidine-4-carbonyl)-1H-pyrrolo[2,3-c]pyridin-1-yl)benzamide] | 4.3 ×10⁻⁶ cm/s | 53 nM | – | – | > 10000 nM | – | – |
| Cc1c(C(=O)C2CCN(C(=O)[C@@H]3CCC(C)(C)N3)CC2)c2ccncc2n1-c1ccc(F)cc1C(=O)N(C(C)C)C(C)C (single isomer, unassigned) [Compound 56-2] | – | – | 40 nM | 35 nM | – | > 10000 nM | – |
| CC(C)N(C(=O)c1cc(F)ccc1-n1cc(C(=O)C2CN(C(=O)[C@H]3N[C@H]4C[C@@H]3[C@@H](F)C4)C2)c2ccncc21)C(C)C [Example 7, 5-Fluoro-2-(3-(1-((1S,3S,4S,5S)-5-fluoro-2-azabicyclo[2.2.1]heptane-3-carbonyl)azetidine-3-carbonyl)-1H-pyrrolo[2,3-c]pyridin-1-yl)-N,N-diisopropylbenzamide] | 2.2 ×10⁻⁶ cm/s | 63 nM | – | 72 nM | > 10000 nM | – | – |
| CCN(C(=O)c1cc(F)ccc1-n1c(C)c(C(=O)[C@@H]2CCN(C(=O)[C@@H]3CC[C@@H](C)N3)[C@@H](C)C2)c2ccncc21)C(C)C (stereo in doubt) [Example 65, N-Ethyl-5-fluoro-N-isopropyl-2-(2-methyl-3-((2S,4RS)-2-methyl-1-((2S,5R)-5-methylpyrrolidine-2-carbonyl)piperidine-4-carbonyl)-1H-pyrrolo[2,3-c]pyridin-1-yl)benzamide] | 1.7 ×10⁻⁶ cm/s | 56 nM | – | – | > 10000 nM | – | – |
| CC(C)c1ccncc1-c1cc(F)ccc1-n1cc(C(=O)C2CCN(C(=O)[C@H]3N[C@@H]4CC[C@H]3C4)CC2)c2ccncc21 [Example 41, (1-((1R,3S,4S)-2-Azabicyclo[2.2.1]heptane-3-carbonyl)piperidin-4-yl)(1-(4-fluoro-2-(4-isopropylpyridin-3-yl)phenyl)-1H-pyrrolo[2,3-c]pyridin-3-yl)methanone] | 0.5 ×10⁻⁶ cm/s | 42 nM | – | – | > 10000 nM | – | – |
| CC(C)c1ncsc1-c1cc(F)ccc1-n1cc(C(=O)C2CN(C(=O)[C@H]3N[C@@H]4CC[C@H]3C4)C2)c2ccncc21.O=CO [Example 12, (1-((1R,3S,4S)-2-Azabicyclo[2.2.1]heptane-3-carbonyl)azetidin-3-yl)(1-(4-fluoro-2-(4-isopropylthiazol-5-yl)phenyl)-1H-pyrrolo[2,3-c]pyridin-3-yl)methanone 1·formic acid] | 1.6 ×10⁻⁶ cm/s | 102 nM | – | – | > 10000 nM | – | – |
| CCN(C(=O)c1cc(F)ccc1-n1c(C)c(C(=O)[C@@H]2CCN(C(=O)[C@@H]3CC[C@H](C)N3)[C@@H](C)C2)c2ccncc21)C(C)C (stereo in doubt) [Example 63, N-Ethyl-5-fluoro-N-isopropyl-2-(2-methyl-3-((2S,4RS)-2-methyl-1-((2S,5S)-5-methylpyrrolidine-2-carbonyl)piperidine-4-carbonyl)-1H-pyrrolo[2,3-c]pyridine-1-yl)benzamide] | 1.5 ×10⁻⁶ cm/s | 47 nM | – | – | > 10000 nM | – | – |
| Cc1c(C(=O)C2CCN(C(=O)[C@@H]3CCC(C)(C)N3)CC2)c2ccncc2n1-c1ccc(F)cc1C(=O)N(C(C)C)C(C)C (single isomer, unassigned) [Example 56-1] | 2.8 ×10⁻⁶ cm/s | – | 1930 nM | – | > 10000 nM | – | – |
| Cc1c(C(=O)[C@@H]2CCN(C(=O)[C@@H]3CC[C@H](C)N3)[C@@H](C)C2)c2ccncc2n1-c1ccc(F)cc1C(=O)N(C(C)C)C(C)C (stereo in doubt) [Example 62, 5-Fluoro-N,N-diisopropyl-2-(2-methyl-3-((2S,4RS)-2-methyl-1-((2S,5S)-5-methylpyrrolidine-2-carbonyl)piperidine-4-carbonyl)-1H-pyrrolo[2,3-c]pyridin-1-yl)benzamide] | 4.9 ×10⁻⁶ cm/s | 52 nM | – | – | > 10000 nM | – | – |
| CCN(C(=O)c1cc(F)ccc1-n1c(C)c(C(=O)C2CCN(C(=O)[C@H]3NC[C@@H]4C[C@@H]43)CC2)c2ccncc21)C(C)C (single isomer, unassigned) [Example 48-1] | – | – | 1250 nM | – | – | > 10000 nM | – |
| CCN(C(=O)c1cc(F)ccc1-n1c(C)c(C(=O)[C@@H]2CCN(C(=O)[C@@H]3CCC4(CC4)N3)[C@@H](C)C2)c2ccncc21)C(C)C (single isomer, unassigned) [Example 52-1, N-Ethyl-5-fluoro-N-isopropyl-2-(2-methyl-3-((2R*,4S*)-2-methyl-1-((S)-4-azaspiro[2.4]heptane-5-carbonyl)piperidine-4-carbonyl)-1H-pyrrolo[2,3-c]pyridin-1-yl)benzamide] | 10.9 ×10⁻⁶ cm/s | – | – | – | – | – | 22 nM |
| CCN(C(=O)c1cc(F)ccc1-n1c(C)c(C(=O)[C@@H]2CCN(C(=O)[C@@H]3CCC4(CC4)N3)[C@@H](C)C2)c2ccncc21)C(C)C (single isomer, unassigned) [Example 52-2, N-Ethyl-5-fluoro-N-isopropyl-2-(2-methyl-3-((2R*,4S*)-2-methyl-1-((S)-4-azaspiro[2.4]heptane-5-carbonyl)piperidine-4-carbonyl)-1H-pyrrolo[2,3-c]pyridin-1-yl)benzamide] | – | – | 48 nM | – | > 10000 nM | – | 56 nM |
| CCN(C(=O)c1cc(F)ccc1-n1c(C)c(C(=O)C2CCN(C(=O)[C@H]3NC[C@@H]4C[C@@H]43)CC2)c2ccncc21)C(C)C (single isomer, unassigned) [Example 48-2] | – | – | 27 nM | – | – | > 10000 nM | 29 nM |

Further lines, with some results ahead:

| Papp A→B [1] | IC50 (MOLM-13 cells; Homo sapiens, MOLM-13, 168 h) | IC50 (MOLM-13 cells) | IC50 (MV4;11 cells; Homo sapiens, MV4-11, 168 h) | Compound | IC50 (HEL cells; Homo sapiens, HEL, 168 h) | IC50 (HEL cells) | IC50 (MV4;11 cells) |
| --- | --- | --- | --- | --- | --- | --- | --- |
| 1.2 ×10⁻⁶ cm/s | – | 44 nM | 39 nM | CCN(C(=O)c1cc(F)ccc1-n1c(C)c(C(=O)C2CCN(C(=O)[C@@H]3CCC(C)(C)N3)CC2)c2ccncc21)C(C)C (single isomer, unassigned) [Example 50-2] | – | > 10000 nM | – |
| – | – | 31 nM | 29 nM | Cc1c(C(=O)C2CCN(C(=O)[C@H]3NC[C@@H]4C[C@@H]43)CC2)c2ccncc2n1-c1ccc(F)cc1C(=O)N(CC(F)(F)F)C(C)C (single isomer, unassigned) [Example 51-2] | – | > 10000 nM | – |
| 1.7 ×10⁻⁶ cm/s | – | 1610 nM | – | Cc1c(C(=O)C2CCN(C(=O)[C@H]3NC[C@@H]4C[C@@H]43)CC2)c2ccncc2n1-c1ccc(F)cc1C(=O)N(CC(F)(F)F)C(C)C (single isomer, unassigned) [Example 51-1] | > 10000 nM | – | – |
| – | – | 25 nM | – | Cc1c(C(=O)C2CCN(C(=O)[C@H]3NC[C@@H]4C[C@@H]43)CC2)c2ccncc2n1-c1ccc(F)cc1C(=O)N(C(C)C)C(C)C (single isomer, unassigned) [Example 55-2] | – | > 10000 nM | 31 nM |
| – | – | 93 nM | 51 nM | Cc1c(C(=O)C2CCN(C(=O)[C@H]3NC[C@@H]4C[C@@H]43)CC2)c2ccncc2n1-c1ccc(F)cc1C(=O)N(C(C)C)[C@H](C)C(F)(F)F (single isomer, unassigned) [Example 57-1] | > 10000 nM | – | – |
